{"source": "patent US20130137116A1", "about": "“METHOD AND KIT FOR DETECTING THE EARLY ONSET OF RENAL TUBULAR CELL INJURY” (priority 2003, published 2013)", "key": {"male Swiss-Webster mice": {"system": "male Swiss-Webster mice", "details": "larger dose (20 μg/kg as printed), previously shown; cited from earlier work"}, "rat": {"system": "rat", "details": "after the initial insult; cited from earlier work"}, "[1]": {"system": "Human renal proximal tubular epithelial cells (RPTEC)", "assay": "Mild ATP depletion of cultured cells (in vitro ischemia) with antimycin A", "format": "cell-based", "details": "1 μm antimycin; for ATP level (partial ATP depletion): mean+/-SD from four experiments", "description": "Human renal proximal tubular epithelial cells (RPTEC) were obtained from Clonetics (San Diego, Calif.). Cells were grown in Renal Epithelial Cell Basal Medium supplemented with REGM complex ([…] hydrocortisone, 10 pg/ml hEGF, 0.5 μg/ml epinephrine, 6.5 pg/ml triiodothyronine, 10 μg/ml transferrin, 5 μg/ml insulin, 1 μg/ml gentamicin sulfate, and 2% FBS), as recommended by the manufacturer.\nWe modified previously described protocols of in vitro ischemia by ATP depletion with inhibitors of oxidative phosphorylation (8, 9). On the second day post-confluence, RPTEC cells were incubated with 1 μm antimycin A (Sigma) for varying periods of time up to 6 h. […] ATP levels were monitored using a luciferase-based assay kit (Sigma), and expressed as a percentage of control values. Cells were harvested at various time points of ATP depletion, and analyzed for NGAL mRNA expression by RT-PCR and NGAL protein expression by Western analysis. The secretion of NGAL into the culture medium was also monitored.\nIn order to confirm the origin of NGAL from ischemic proximal tubule cells, we modified previously described protocols of in vitro ischemia by ATP depletion in cultured human proximal tubule cells (RPTEC). […] NGAL mRNA was just detectable in resting cells."}}, "data": [{"molecule": "N.N.[Cl][Pt][Cl]", "note": "[cisplatin]", "values": [{"measurement": "Time to tubule cell necrosis and apoptosis, and impaired renal function", "setting": "male Swiss-Webster mice", "result": "3 to 4", "unit": "days"}, {"measurement": "Time at which KIM-1 is qualitatively detectable", "setting": "rat", "result": "24 to 48", "unit": "h"}]}, {"molecule": "antimycin A", "values": [{"measurement": "ATP level (partial ATP depletion)", "setting": "[1]; by 6 h", "result": "about 75±3 % of control"}, {"measurement": "Morphological consequences of mild ATP depletion", "setting": "[1]; up to 6 h", "result": "No morphological consequences"}, {"measurement": "ATP level (partial ATP depletion)", "setting": "[1]; within 1 h", "result": "about 83±3 % of control"}, {"measurement": "NGAL mRNA induction by RT-PCR", "setting": "[1]; following partial ATP depletion", "result": "rapid and duration-dependent induction"}]}]}
